Experimental data as given in PubChem BioAssay (NCI).
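1) Cells in 96-well plates. 2) Compound, 48 h, 5 concentrations. 3) Linear interpolation between surrounding doses. 4) Unreached endpoint = highest concentration. GI50 marks 50% less growth. TGI: total growth inhibition.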

Experiments:
Assay in all cases: NCI tumour cell line growth inhibition, 48 h
[1] = system: HOP-92 NSCLC
[2] = system: SF-539 CNS
[3] = system: UACC-257 melanoma
[4] = system: SW-620 colon
[5] = system: UACC-62 melanoma
[6] = system: MOLT-4 leukemia
[7] = system: RPMI-8226 leukemia
[8] = system: EKVX NSCLC
[9] = system: SK-MEL-28 melanoma
[10] = system: NCI-H460 lung

Structure (SMILES)	TGI [1] [µM]	TGI [2] [µM]	TGI [3] [µM]	TGI [4] [µM]	TGI [5] [µM]	TGI [6] [µM]	TGI [7] [µM]	TGI [8] [µM]	TGI [9] [µM]	GI50 [2] [µM]	GI50 [4] [µM]	GI50 [5] [µM]	GI50 [6] [µM]	GI50 [8] [µM]	GI50 [10] [µM]	TGI [10] [µM]	GI50 [9] [µM]	GI50 [1] [µM]	GI50 [3] [µM]	GI50 [7] [µM]
COc1ccc(C(=O)NCCN(C)C)c2nc3ccccc3nc12	> 27.4	17.6	13	> 30.5	17.8	7.3	> 100	33.2	16.8	–	–	–	–	–	–	–	–	–	–	–
C(=N\Nc1nnn(Cc2ccccc2)n1)/c1ccccc1	–	32.5	> 100	> 100	> 100	> 100	–	> 100	> 100	3.29	1.73	2.2	3.82	12.3	2.51	> 33.8	8.47	–	–	–
COC(=O)C1(C(=O)OC)CC(=O)c2cc3c(cc2-c2c(cc(OC)c(OC)c2OC)C1)OCO3	167	> 211	> 211	> 211	> 211	> 211	–	> 211	> 211	–	–	–	–	–	–	> 211	–	–	–	–
Cc1c(C(=O)O)oc2ccc([N+](=O)[O-])cc12	> 100	> 100	> 100	> 100	> 100	–	–	> 100	> 100	–	–	–	–	–	–	> 100	–	–	–	–
CSC1=Nc2ccccc2N=C(c2ccc(Cl)cc2)C1	–	> 100	84.9	> 100	> 100	67.4	> 100	> 100	> 100	–	–	–	–	–	–	> 100	–	–	–	–
CSc1nnc(COc2ccc(Cl)cc2)o1	–	> 100	> 100	> 100	> 100	–	–	> 100	> 100	–	–	–	–	–	–	> 100	–	–	–	–
C[N+](C)(C)CC1CCCCC1O (centres undefined)	> 100	> 100	> 100	> 100	> 100	> 100	> 100	–	> 100	–	–	–	–	–	–	> 100	–	–	–	–
CC(=O)N1CCC2(c3ccccc3N(C(C)=O)C2c2ccc(O)cc2)C1C(=O)O (centres undefined)	> 100	> 100	> 100	> 100	> 100	> 100	> 100	> 100	> 100	–	–	–	–	–	–	–	–	–	–	–
CCOC(=O)C(NC(=O)c1nc[nH]c1[N+](=O)[O-])C(C)C (centres undefined)	–	> 100	> 100	> 100	> 100	> 100	> 100	> 100	> 100	–	–	–	–	–	–	> 100	–	–	–	–
O=C(N/N=C/c1cccc(F)c1)c1ccncc1	> 100	–	> 100	> 100	–	> 100	> 100	–	> 100	–	–	–	–	–	–	> 100	–	–	–	–
O=S(=O)(NCCCNc1nccc(-c2c(-c3ccc(F)cc3)nc3sccn23)n1)c1ccc2ccccc2c1	> 100	> 100	> 100	> 100	> 100	> 100	> 100	–	> 100	> 100	6.4	4.6	4.52	–	3.74	> 100	> 100	6.36	> 100	4.05
